Reference: the supplement of paper PMC10307832

Experiments:
Experiment in all cases: relative viability (nuclei count vs DMSO), 5 days (fraction); higher = more cells survive
[1] = compound: Cc1ccc(C(=O)Nc2ccc(CN3CCN(C)CC3)c(C(F)(F)F)c2)cc1C#Cc1cnc2cccnn12 [Ponatinib]
Outline: (§1)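 Cells of lung cancer lines were placed in 1536-well plates and kept overnight at 37 °C. Pinning then delivered five library-drug doses (not always all listed), spaced by √10, onto plates anchored with vehicle, and the cells were left 5 days without changing medium. One step fixed, permeabilised and stained them with Hoechst, and MetaXpress counted nuclei in 4× images. Viability, as a median over plates, is treated-well nuclei divided by vehicle-well nuclei, with acceptance only at control CV below 25% and at least one doubling.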

[2] = compound: Cc1ccc(Nc2nccc(N(C)c3ccc4c(C)n(C)nc4c3)n2)cc1S(N)(=O)=O [Pazopanib]
Outline: as §1

[3] = compound: Cc1ccc(C(=O)Nc2ccc(CN3CCN(C)CC3)c(C(F)(F)F)c2)cc1C#Cc1cnc2cccnn12 [Ponatinib] + CC1(C)CCC(c2ccc(Cl)cc2)=C(CN2CCN(c3ccc(C(=O)NS(=O)(=O)c4ccc(N[C@H](CCN5CCOCC5)CSc5ccccc5)c(S(=O)(=O)C(F)(F)F)c4)cc3)CC2)C1 [Navitoclax] (partner 0.5 µM)
Outline: (§2)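 Relative viability equals treated-well nuclei counts divided by vehicle-well nuclei counts. Counts came from 4× images of lung cancer cell lines grown in 1536-well plates for 5 days after pin-tool dosing on the day after seeding. Dosing used one drug alone or a fixed anchor-drug dose plus five library-drug doses (not always all listed) in √10 steps, and values are medians of duplicate plates.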

[4] = compound: Cc1ccc(Nc2nccc(N(C)c3ccc4c(C)n(C)nc4c3)n2)cc1S(N)(=O)=O [Pazopanib] + N=C(N)NC(=N)NCCc1ccccc1 [Phenformin] (partner 250 µM)
Outline: as §2

Cell Line	relative viability ([1]; 0.002 µM)	relative viability ([1]; 0.006325 µM)	relative viability ([1]; 0.06325 µM)	relative viability ([1]; 0.2 µM)	relative viability ([2]; 0.01 µM)	relative viability ([2]; 0.03162 µM)	relative viability ([2]; 0.1 µM)	relative viability ([2]; 0.3162 µM)	relative viability ([2]; 1 µM)	relative viability ([3]; first compound 0.002 µM)	relative viability ([3]; first compound 0.006325 µM)	relative viability ([3]; first compound 0.06325 µM)	relative viability ([3]; first compound 0.2 µM)	relative viability ([4]; first compound 0.01 µM)	relative viability ([4]; first compound 0.03162 µM)	relative viability ([4]; first compound 0.1 µM)	relative viability ([4]; first compound 0.3162 µM)	relative viability ([4]; first compound 1 µM)
NCI-H2023	0.821	0.95	1.1	0.846	0.856	1	0.989	0.974	1.22	0.968	0.946	1.1	1	0.421	0.43	0.398	0.444	0.434
NCI-H23	0.862	1	1.15	0.833	0.858	1.04	1.03	1.02	1.29	0.762	0.828	0.852	0.781	0.565	0.87	0.905	0.798	0.783
NCI-H2170	0.927	0.969	1	0.917	0.828	1.02	0.948	0.899	0.995	0.643	0.661	0.684	0.765	0.507	0.406	0.393	0.423	0.388
NCI-H1944	0.828	1.01	0.957	1	0.739	0.965	1.06	0.981	1.01	1.04	1.09	1.2	1.02	–	0.191	0.218	0.227	0.228
NCI-H596	0.906	0.924	0.875	0.785	0.815	1.05	0.959	0.904	1.05	0.845	0.969	1.03	0.733	–	0.916	0.732	0.879	0.963
A549	0.809	0.975	1.02	0.917	0.935	0.99	1.04	1.01	1.17	1.17	1.11	1.37	1.16	–	0.169	0.178	0.142	0.18
NCI-H520	0.774	0.921	0.832	0.628	0.858	1.01	1.01	1.1	1.11	0.946	1.1	0.922	0.646	0.386	0.545	0.507	0.705	0.537
EKVX	0.899	1.06	1.24	1.06	0.902	0.989	0.964	1.06	1.03	0.878	0.907	1.04	0.735	0.227	0.224	0.207	0.225	0.234
SK-MES-1	0.944	1.06	1.15	1	0.946	0.987	1.04	1.05	1.05	1.25	1.12	1.3	1.19	0.734	0.661	0.668	0.669	0.688
EPLC-272H	0.818	1.01	1.14	0.801	0.706	0.919	0.962	1.07	0.92	0.989	1.23	1.18	1.05	–	0.311	0.308	0.347	0.392
NCI-H1793	0.959	0.914	0.89	0.715	–	0.875	0.856	0.961	1.16	0.495	0.422	0.54	0.478	–	0.419	0.394	0.425	0.421
NCI-H2126	0.959	1.04	1.14	1.04	0.91	0.903	1.02	0.991	0.996	0.823	0.871	0.963	0.848	0.489	0.521	0.537	0.53	0.587
LXF-289	0.948	0.998	0.984	0.969	1.07	0.989	1.04	0.997	1	0.862	0.957	0.935	0.971	0.563	0.554	0.507	0.533	0.525
NCI-H2009	0.95	0.944	1.07	1.03	0.989	1.04	0.937	1.02	0.891	1.12	1.07	1.13	1.13	0.504	0.47	0.451	0.453	0.388
NCI-H3122	0.979	0.997	1.02	1.02	1.04	0.997	1.01	1.06	1.05	1.04	1.03	1.04	1.01	0.417	0.388	0.345	0.36	0.376
NCI-H1755	1.02	0.964	0.99	0.892	0.892	0.967	0.947	0.978	1.02	0.962	0.947	1.02	0.803	0.552	0.636	0.673	0.65	0.671
HCC-78	0.8	0.994	1.03	0.874	0.743	1	0.889	0.933	0.936	0.578	0.725	0.981	0.629	0.531	0.696	0.626	0.635	0.622
LOU-NH91	0.957	1.03	1.04	0.938	0.903	0.955	0.949	1.11	1.01	0.679	0.753	0.779	0.655	0.635	0.731	0.605	0.751	0.731
